Test results published in patent publication US20210235692A1, “Stable 1-Methylcyclopropene Compositions and Uses Thereof” (Fresh Inset S.A., priority 2020, published 2021).

Assay: Percentage of dimers by gas chromatography over time, 1-MCP/butane 1:1 and negative control
Assay type: physicochemical
From the text: 1-MCP and butane was mixed in liquid form in 1:1 ratio (v/v). Then, the mixture was transferred into the glass container.
Table 18 and FIG. 11 (plot line with circular data points) show the percentage of dimers in the composition as measured by gas chromatography at various points over time. The dotted line is a trend line that extrapolates the 1-MCP/butane plot. A negative control containing only 1-MCP was used for comparison. Table 19 and FIG. 11 (plot line with square data points) show the percentage of dimers in the negative control as measured by gas chromatography at the same points over time that the composition was measured.

Structure (SMILES): CC1=CC1 [negative control, 1-methylcyclopropene]
- % of dimer (time 1 h): 0.229%
- % of dimer (time 3.75 h): 0.401%
- % of dimer (time 25.75 h): 4.013%
- % of dimer (time 123.5 h): 49.588%
